# According to US20250205265A1, “ASPERULOSIDE AS AN AGENT FOR IMPROVING VASCULAR AND METABOLIC FUNCTION IN OBESITY: ROLE OF NRF2 ACTIVATION” (The Chinese University of Hong Kong, priority 2023, published 2025):
# Entries after “also recorded” stand apart in the source; their conditions may differ. Like-named read-outs stand apart in the source and are kept apart here.
# How the values were obtained:
# Npra, Hsl, Fas, Acc2 = test: Real-time PCR of lipid metabolism genes in obese mice livers; type: in vivo
# Protocol: (§1) After induction of obesity in C57BL/6 male mice fed with the high-fat diet for twelve weeks, they were treated daily with ASP (50 mg/kg) via oral gavage for seven weeks in vivo study. C57BL/6 mice aortae were used for ex vivo studies. Endothelial cells, HepG2 and primary adipocytes were used for in vitro studies. Vascular function was determined by wire myograph. H&E staining was employed for histological examination. Oil Red O staining was used to determine lipid droplets in tissues and cells. DHE and MitoSOX staining were used to detect ROS levels. QPCR, aortic en-face immunofluorescence staining, and Western blotting were used to analyze mRNA and protein expressions. ARE binding activity was determined by Dual luciferase reporter assay. Small interfering (si)RNA of Nrf2 and HO-1, inhibitors of Nrf2 (ML385, Cat. No.: HY-100523) and HO-1 (OB-24, HY-118487) were used to elucidate the mechanistic pathway of ASP's action.
# HO-1 [1] = test: Real-time PCR of HO-1 in obese mice aortas; type: in vivo
# Protocol: (§2) After induction of obesity in C57BL/6 male mice fed with high fat diet for twelve weeks, they were treated daily with ASP (50 mg/kg) via oral gavage for seven weeks in vivo study. C57BL/6 mice aortae were used for ex vivo study and endothelial cells were used for in vitro study. Vascular function was determined by wire myograph. DHE and MitoSOX staining were used to detect ROS levels. QPCR, aortic en-face immunofluorescence staining, and Western blotting were used to analyze mRNA and protein expressions. Small interfering (si)RNA of Nrf2 and HO-1, inhibitors of Nrf2 (ML385, Cat. No.: HY-100523) and HO-1 (OB-24, HY-118487) were used to elucidate the mechanistic pathway of ASP's action.
# as §1, with “QPCR, aortic en-face immunofluorescence staining, and Western blotting were used to analyze mRNA and protein expressions.” left out, “Small interfering (si)RNA of Nrf2 and HO-1, inhibitors of Nrf2 (ML385, Cat. No.: HY-100523) and HO-1 (OB-24, HY-118487) were used to elucidate the mechanistic pathway of ASP's action.” left out
# HO-1 [2] = test: HO-1 expression in endothelial cells (western blotting, real-time PCR); type: cell-based
# Protocol: as §2, §1
# Nrf2 [3] = test: Nrf2 nuclear translocation in endothelial cells; type: cell-based
# Protocol: as §2, §1
# ROS = test: DHE staining of ROS in obese mice aortic sections; type: in vivo; details: ASP 50 mg/kg oral gavage daily for seven weeks
# Protocol: as §2
# as §1, with “QPCR, aortic en-face immunofluorescence staining, and Western blotting were used to analyze mRNA and protein expressions.” left out, “Small interfering (si)RNA of Nrf2 and HO-1, inhibitors of Nrf2 (ML385, Cat. No.: HY-100523) and HO-1 (OB-24, HY-118487) were used to elucidate the mechanistic pathway of ASP's action.” left out
# Nrf2 protein = molecular target: T1, Nrf2 protein (Mus musculus, UniProt Q60795); test: CETSA in endothelial cells; type: binding; details: ASP 40 μmol/L
# T1 construct: endogenous in cells
# T1 sequence (Q60795 whole entry): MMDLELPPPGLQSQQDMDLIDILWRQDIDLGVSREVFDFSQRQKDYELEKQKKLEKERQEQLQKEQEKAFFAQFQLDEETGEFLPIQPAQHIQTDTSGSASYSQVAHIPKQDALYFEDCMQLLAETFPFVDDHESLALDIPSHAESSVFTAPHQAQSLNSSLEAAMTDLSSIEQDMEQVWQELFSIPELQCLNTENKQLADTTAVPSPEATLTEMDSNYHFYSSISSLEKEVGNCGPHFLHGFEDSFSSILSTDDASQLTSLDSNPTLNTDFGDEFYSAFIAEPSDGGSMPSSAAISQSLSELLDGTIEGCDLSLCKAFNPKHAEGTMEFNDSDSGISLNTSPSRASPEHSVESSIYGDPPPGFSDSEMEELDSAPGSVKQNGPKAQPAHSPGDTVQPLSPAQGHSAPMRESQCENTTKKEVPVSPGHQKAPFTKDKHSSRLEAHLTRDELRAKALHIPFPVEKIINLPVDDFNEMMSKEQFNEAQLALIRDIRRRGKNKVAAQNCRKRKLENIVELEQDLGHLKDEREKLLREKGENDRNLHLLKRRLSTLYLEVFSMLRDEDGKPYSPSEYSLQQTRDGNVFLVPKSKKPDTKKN
# Protocol: The Nrf2 protein expression was normalized to total protein. P values were determined using One-way ANOVA. *p<0.05. Data represent means±SEM of 3 experiments.
# HO-1 [4] = test: Aortic en-face immunofluorescence staining of HO-1; parameters: species or system mice
# Protocol: as §2, §1
# HepG2 cells = test: ATP production in PA-treated HepG2 cells; type: cell-based
# Protocol: as §1
# Nrf2 [5] = test: Nrf2 nuclear translocation in primary adipocytes (immunofluorescence); type: cell-based, mice; details: 40 μmol/L ASP for 24 hours
# Protocol: Primary adipocytes were treated with 40 μmol/L ASP (FIG. 22A) or different doses of ASP (FIG. 22B) for 24 hours. […] Scale bar, 50 μm (FIG. 22B). Data represent means±SEM of 4 experiments. P values were determined using One-way ANOVA. *p<0.05.
# as §1
# ICAM-1 = test: Real-time PCR of ICAM-1 in aortas of obese mice; type: in vivo
# Protocol: as §2
# as §1, with “QPCR, aortic en-face immunofluorescence staining, and Western blotting were used to analyze mRNA and protein expressions.” left out, “Small interfering (si)RNA of Nrf2 and HO-1, inhibitors of Nrf2 (ML385, Cat. No.: HY-100523) and HO-1 (OB-24, HY-118487) were used to elucidate the mechanistic pathway of ASP's action.” left out
# obese mice livers = test: ATP levels in obese mice livers; type: in vivo
# Protocol: as §1
# SDHC = test: Real-time PCR of SDHC in PA-treated HepG2 cells; type: cell-based; details: PA-treated HepG2 cells when Nrf2 is inhibited
# Protocol: as §1
# VCAM-1 = test: Real-time PCR of VCAM-1 in aortas of obese mice; type: in vivo
# Protocol: as §2
# as §1, with “QPCR, aortic en-face immunofluorescence staining, and Western blotting were used to analyze mRNA and protein expressions.” left out, “Small interfering (si)RNA of Nrf2 and HO-1, inhibitors of Nrf2 (ML385, Cat. No.: HY-100523) and HO-1 (OB-24, HY-118487) were used to elucidate the mechanistic pathway of ASP's action.” left out
# [6] = obese mice aortae, ASP 50 mg/kg oral gavage daily for seven weeks
# [7] = endothelial cells under basal conditions
# [8] = aortas of obese mice, real-time PCR
substance,measurement,setting,value
Asperuloside,"mRNA expression levels of fatty acid synthesis-related genes, including Fas and Acc2","Npra, Hsl, Fas, Acc2",downregulated
same,"mRNA expression levels of lipolysis-related genes, Npra and Hsl","Npra, Hsl, Fas, Acc2","increases the mRNA expression levels of lipolysis-related genes, Npra and Hsl"
same,increase of HO-1 expression,HO-1 [1]; [6],about 1.5 fold
same,HO-1 mRNA expression level,"HO-1 [1]; obese mice aortas, real-time PCR",increases mRNA expression level of Nrf2 (FIG. 1G) and HO-1
same,HO-1 mRNA,"HO-1 [2]; IL-1β, ML385-treated cells",fails to restore IL-1β-mediated downregulation of HO-1 protein (FIG. 4B) and mRNA
same,HO-1 protein,"HO-1 [2]; IL-1β, ML385-treated cells",fails to restore IL-1β-mediated downregulation of HO-1 protein
same,HO-1 upregulation (western blotting),HO-1 [2]; Nrf2-silenced cells,ASP-induced upregulation of HO-1 is eliminated; also recorded: Nrf2 knockdown attenuated HO-1 upregulation by ASP
same,HO-1 expression (western blotting),HO-1 [2]; [7],dose-dependently upregulated HO-1 expression
same,HO-1 mRNA (real-time PCR),HO-1 [2]; [7],dose-dependently increases HO-1 mRNA
same,Nrf2 nuclear expression (western blotting),"Nrf2 [3]; 40 μmol/L ASP, endothelial cells under basal conditions",increases Nrf2 nuclear expressions
same,Nrf2 nuclear translocation (western blotting),Nrf2 [3]; endothelial cells,dose-dependently stimulates Nrf2 nuclear translocation; also recorded: increased nuclear Nrf2
same,ROS generation / oxidative stress (DHE staining),ROS,suppresses elevated ROS generation; also recorded: suppressed oxidative stress
same,melting behavior of Nrf2 protein (CETSA),Nrf2 protein; 0.3 ng/mL IL-1β-treated endothelial cells,changes the melting behavior of Nrf2 protein
same,melting behavior of Nrf2 protein (CETSA),Nrf2 protein; [7],changes the melting behavior of Nrf2 protein
same,HO-1 expression (en-face immunofluorescence),HO-1 [4]; EC-specific knockdown of Nrf2,EC-specific knockdown of Nrf2 abolishes the upregulation of HO-1 by ASP treatment
same,HO-1 expression (en-face immunofluorescence),HO-1 [4]; OB-24-treated aortas,fails to increase HO-1 expression
same,endothelial HO-1 expression (en-face immunofluorescence),HO-1 [4]; inhibition of Nrf2/ARE binding (ML385),inhibition of Nrf2/ARE binding eliminates the endothelial upregulation of HO-1 by ASP treatment
same,production of ATP,HepG2 cells,restores the decreased production of ATP
same,production of ATP,HepG2 cells; inhibition of Nrf2,inhibition of Nrf2 eliminates the rescue effect of ASP
same,Nrf2 nuclear translocation,Nrf2 [5],stimulates Nrf2 nuclear translocation in adipocytes
same,ICAM-1 mRNA expression,ICAM-1; [8],decreases elevated expression of VCAM-1 and ICAM-1 mRNA
same,reduction of ICAM-1 expression,ICAM-1; [6],about 2 fold
same,ATP levels,obese mice livers,increases ATP levels
same,mRNA expression levels of SDHC,SDHC,fails to upregulate the mRNA expression levels of SDHC
same,VCAM-1 mRNA expression,VCAM-1; [8],decreases elevated expression of VCAM-1 and ICAM-1 mRNA
same,reduction of VCAM-1 expression,VCAM-1; [6],about 2 fold
